A word on the EC50: it is the concentration needed to bring the measured effect to its halfway point. Low values mean an effect from little substance, high ones a need for much substance.

The source of these data is patent US11254663B2 (BRISTOL-MYERS SQUIBB COMPANY, priority 2019, dated 2022).

The conditions of assay [1]: T2DM patients with NAFLD, 6-week clinical trial; cited from earlier work.
For assay [2] the following is noted: patients with NASH, 72-week clinical trial; cited from earlier work.
The next assay addresses FXR (Homo sapiens (Human), UniProt Q96RI1). The assay is described as follows: FXR EC50 (FXR agonist potency reported with each Example). The assay is classed as cell-based.

Sequence of FXR (Q96RI1 262-486): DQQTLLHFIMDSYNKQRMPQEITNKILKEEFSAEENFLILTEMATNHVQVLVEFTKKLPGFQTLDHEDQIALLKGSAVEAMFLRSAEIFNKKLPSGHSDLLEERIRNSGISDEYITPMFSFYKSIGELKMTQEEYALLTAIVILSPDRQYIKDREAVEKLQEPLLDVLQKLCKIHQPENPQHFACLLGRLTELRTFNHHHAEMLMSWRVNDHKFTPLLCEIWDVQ

In the case of `CC[C@H]1[C@@H](O)[C@@H]2[C@H](CC[C@]3(C)[C@@H]([C@H](C)CCC(=O)O)CC[C@@H]23)[C@@]2(C)CC[C@@H](O)C[C@@H]12` [OCA, obeticholic acid], in assay [1], the body weight entry is “reduced body weight” and the insulin sensitivity entry is “statistically significantly improved insulin sensitivity”. Besides, the “hepatic steatosis, lobular inflammation, hepatocyte ballooning, and fibrosis as assessed by histological analyses of liver biopsies” value in assay [2] was “statistically significantly improved hepatic steatosis, lobular inflammation, hepatocyte ballooning, and fibrosis”.
Turning to `CC(C)(C)c1nc(C23CCC(CN(C(=O)C45CC(F)(C4)C5)c4cccc(-c5cnn(S(C)(=O)=O)c5)c4)(CC2)CC3)no1` [Example 194, N-((4-(5-(tert-butyl)-1,2,4-oxadiazol-3-yl)bicyclo[2.2.2]octan-1-yl)methyl)-3-fluoro-N-(3-(1-(methylsulfonyl)-1H-pyrazol-4-yl)phenyl)bicyclo[1.1.1]pentane-1-carboxamide], a half-maximal effect on FXR (EC50) was put at 16 nM.
On FXR, `CC(C)(C)c1nc(-c2cccc(N(CC34CCC(c5ccc(C(F)(F)F)cn5)(CC3)CC4)C(=O)C34CC(F)(C3)C4)c2)no1` [Example 188, N-(3-(5-(tert-butyl)-1,2,4-oxadiazol-3-yl)phenyl)-3-fluoro-N-((4-(5-(trifluoromethyl)pyridin-2-yl)bicyclo[2.2.2]octan-1-yl)methyl)bicyclo[1.1.1]pentane-1-carboxamide] showed an EC50 of 304 nM.
Same read-out and setting: the value for `O=C(N(CC12CCC(c3nc(C4CC4)no3)(CC1)CC2)c1cccc(-c2nc(C(F)F)co2)c1)C12CC(F)(C1)C2` [Example 40, N-((4-(3-cyclopropyl-1,2,4-oxadiazol-5-yl)bicyclo[2.2.2]octan-1-yl)methyl)-N-(3-(4-(difluoromethyl)oxazol-2-yl)phenyl)-3-fluorobicyclo[1.1.1]pentane-1-carboxamide] was 243 nM; that for `CCOC(=O)c1coc(-c2cccc(N(CC34CCC(c5nc(C6CC6)no5)(CC3)CC4)C(=O)C34CC(F)(C3)C4)c2)n1` [Example 13, Ethyl 2-(3-(N-((4-(3-cyclopropyl-1,2,4-oxadiazol-5-yl)bicyclo[2.2.2]octan-1-yl)methyl)-3-fluorobicyclo[1.1.1]pentane-1-carboxamido)phenyl)oxazole-4-carboxylate] was 512 nM.
The same measure, in the same setting: for `CC(C)(C)c1noc(C23CCC(CN(C(=O)C45CC(F)(C4)C5)c4cccc(-c5noc(C6(C)COC6)n5)c4)(CC2)CC3)n1` [Example 174, N-((4-(3-(tert-butyl)-1,2,4-oxadiazol-5-yl)bicyclo[2.2.2]octan-1-yl)methyl)-3-fluoro-N-(3-(5-(3-methyloxetan-3-yl)-1,2,4-oxadiazol-3-yl)phenyl)bicyclo[1.1.1]pentane-1-carboxamide] the value was 40 nM.
For `CC(C)(C)c1nc(C23CCC(CN(C(=O)C45CC(F)(C4)C5)c4cc(-c5nc(C6CC6)no5)ccn4)(CC2)CC3)no1` [Example 210, N-((4-(5-(tert-butyl)-1,2,4-oxadiazol-3-yl)bicyclo[2.2.2]octan-1-yl)methyl)-N-(4-(3-cyclopropyl-1,2,4-oxadiazol-5-yl)pyridin-2-yl)-3-fluorobicyclo[1.1.1]pentane-1-carboxamide], on FXR, the EC50 was found to be 48 nM.
Still for that read-out and setting: the value for `CC(C)(O)c1coc(-c2cccc(N(CC34CCC(c5nc(C6CC6)no5)(CC3)CC4)C(=O)C34CC(F)(C3)C4)c2)n1` [Example 15, N-((4-(3-cyclopropyl-1,2,4-oxadiazol-5-yl)bicyclo[2.2.2]octan-1-yl)methyl)-3-fluoro-N-(3-(4-(2-hydroxypropan-2-yl)oxazol-2-yl)phenyl)bicyclo[1.1.1]pentane-1-carboxamide] was 88 nM.
The same measure, in the same setting: for `O=C(N(CC12CCC(c3noc(C4CC4(F)F)n3)(CC1)CC2)c1cccc(-c2nc(C3CC3)no2)c1)C12CC(F)(C1)C2` (centres unmarked) [Example 123, N-(3-(3-cyclopropyl-1,2,4-oxadiazol-5-yl)phenyl)-N-((4-(5-(2,2-difluorocyclopropyl)-1,2,4-oxadiazol-3-yl)bicyclo[2.2.2]octan-1-yl)methyl)-3-fluorobicyclo[1.1.1]pentane-1-carboxamide] the value was 73 nM.
